Reference: the supplement of paper PMC11451515

System: SEM cells
Experiment: cell viability relative to DMSO control; higher = less cytotoxic
Settings: 48 h
Method in brief: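 Leukemia cells (NOMO1 or SEM, 500 cells/well; P12-Ichikawa, 1000 cells/well) were seeded in 5 μl in 1536-well plates after at least four passages of adaptation to each medium. They received library compounds in DMSO by pin dosing, 11 threefold points from 47 μM to 0.79 nM. Luminescence with CellTiter-Glo One was read after 48 h at 37°C. Viability is stated per plate relative to DMSO wells, with cell-free wells as background.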

[1] = HPLM + 10% dialyzed FBS, 0.000781 µM
[2] = HPLM + 10% dialyzed FBS, 0.00234 µM
[3] = HPLM + 10% dialyzed FBS, 0.00702 µM
[4] = HPLM + 10% dialyzed FBS, 0.0211 µM
[5] = HPLM + 10% dialyzed FBS, 0.0632 µM
[6] = HPLM + 10% dialyzed FBS, 0.19 µM
[7] = HPLM + 10% dialyzed FBS, 0.569 µM
[8] = HPLM + 10% dialyzed FBS, 1.71 µM
[9] = HPLM + 10% dialyzed FBS, 5.12 µM
[10] = HPLM + 10% dialyzed FBS, 15.4 µM
[11] = HPLM + 10% dialyzed FBS, 46.1 µM
[12] = RPMI 5 mM glucose + 10% FBS, 0.000781 µM
[13] = RPMI 5 mM glucose + 10% FBS, 0.00234 µM
[14] = RPMI 5 mM glucose + 10% FBS, 0.00702 µM
[15] = RPMI 5 mM glucose + 10% FBS, 0.0211 µM
[16] = RPMI 5 mM glucose + 10% FBS, 0.0632 µM
[17] = RPMI 5 mM glucose + 10% FBS, 0.19 µM
[18] = RPMI 5 mM glucose + 10% FBS, 0.569 µM
[19] = RPMI 5 mM glucose + 10% FBS, 1.71 µM
[20] = RPMI 5 mM glucose + 10% FBS, 5.12 µM
[21] = RPMI 5 mM glucose + 10% FBS, 15.4 µM
[22] = RPMI 5 mM glucose + 10% FBS, 46.1 µM
[23] = RPMI 5 mM glucose + 10% dialyzed FBS, 0.000781 µM
[24] = RPMI 5 mM glucose + 10% dialyzed FBS, 0.00234 µM
[25] = RPMI 5 mM glucose + 10% dialyzed FBS, 0.00702 µM
[26] = RPMI 5 mM glucose + 10% dialyzed FBS, 0.0211 µM
[27] = RPMI 5 mM glucose + 10% dialyzed FBS, 0.0632 µM
[28] = RPMI 5 mM glucose + 10% dialyzed FBS, 0.19 µM
[29] = RPMI 5 mM glucose + 10% dialyzed FBS, 0.569 µM
[30] = RPMI 5 mM glucose + 10% dialyzed FBS, 1.71 µM
[31] = RPMI 5 mM glucose + 10% dialyzed FBS, 5.12 µM
[32] = RPMI 5 mM glucose + 10% dialyzed FBS, 15.4 µM
[33] = RPMI 5 mM glucose + 10% dialyzed FBS, 46.1 µM

| Compound | cell viability [1] [%] | cell viability [2] [%] | cell viability [3] [%] | cell viability [4] [%] | cell viability [5] [%] | cell viability [6] [%] | cell viability [7] [%] | cell viability [8] [%] | cell viability [9] [%] | cell viability [10] [%] | cell viability [11] [%] | cell viability [12] [%] | cell viability [13] [%] | cell viability [14] [%] | cell viability [15] [%] | cell viability [16] [%] | cell viability [17] [%] | cell viability [18] [%] | cell viability [19] [%] | cell viability [20] [%] | cell viability [21] [%] | cell viability [22] [%] | cell viability [23] [%] | cell viability [24] [%] | cell viability [25] [%] | cell viability [26] [%] | cell viability [27] [%] | cell viability [28] [%] | cell viability [29] [%] | cell viability [30] [%] | cell viability [31] [%] | cell viability [32] [%] | cell viability [33] [%] |
| --- | --- | --- | --- | --- | --- | --- | --- | --- | --- | --- | --- | --- | --- | --- | --- | --- | --- | --- | --- | --- | --- | --- | --- | --- | --- | --- | --- | --- | --- | --- | --- | --- | --- |
| C\C1=C(\C=C(C#N)/C(=O)N1)C2=C[N]3C=CN=C3C=C2 | 66.9 | 77.5 | 81.6 | 75 | 82.2 | 72.6 | 71.8 | 87.4 | 91.4 | 83.3 | 94.7 | 73.7 | 88 | 82.8 | 96.8 | 90.4 | 73.6 | 94.6 | 85.9 | 102 | 99.2 | 89.6 | 79.6 | 72.2 | 87.6 | 88 | 81.8 | 77.7 | 86.6 | 98.8 | 86.9 | 93.4 | 94 |
| N[C@H](CSC(c1ccccc1)(c1ccccc1)c1ccccc1)C(=O)O | 105 | 99.3 | 113 | 99.4 | 117 | 97 | 102 | 94 | 69.4 | 54.9 | 14.7 | 44.8 | 74.6 | 75.2 | 68.2 | 71.1 | 60.9 | 69.8 | 52.3 | 47.2 | 18.7 | 2.79 | 100 | 105 | 122 | 86.5 | 106 | 95.6 | 94 | 82.1 | 60.8 | 40.1 | 12.8 |
| C/C=C(/C)C(=O)O[C@H]1C(C)=C[C@]23C(=O)[C@@H](C=C(CO)[C@@H](O)[C@]12O)[C@H]1[C@@H](C[C@H]3C)C1(C)C | 93.9 | 121 | 87.5 | 90 | 92.4 | 82.1 | 72 | 92.5 | 87.7 | 70.3 | 54.9 | 120 | 114 | 101 | 102 | 100 | 71.9 | 66.9 | 79.9 | 82.6 | 72.7 | 43.8 | 115 | 135 | 101 | 107 | 113 | 93.7 | 104 | 100 | 91.5 | 82.4 | 42.6 |
| C#C[C@]1(O)CC[C@H]2[C@@H]3CCc4cc(O)ccc4[C@H]3CC[C@@]21C | 86.5 | 103 | 99.6 | 96.6 | 92.2 | 99.4 | 103 | 98.9 | 105 | 68 | 47.1 | 92.3 | 116 | 115 | 113 | 105 | 107 | 111 | 104 | 99.8 | 62.9 | 48.7 | 93.7 | 111 | 108 | 108 | 108 | 98.2 | 95.1 | 114 | 100 | 68.8 | 57.6 |
| CN(NC(=O)CC(=O)NN(C)C(=S)c1ccccc1)C(=S)c1ccccc1 | 84.1 | 89.7 | 98.9 | 83.7 | 15.8 | 4.39 | 3.48 | 3.79 | 4.13 | 3.69 | 4.7 | 112 | 116 | 117 | 120 | 18.3 | 6.81 | 5.75 | 5.74 | 6.44 | 5.8 | 5.63 | 78.8 | 75.8 | 80.7 | 93.1 | 10.5 | 5.14 | 4.03 | 4.74 | 4.6 | 4.37 | 5.18 |
| CC(C)C[C@H](NC(=O)[C@H](CCc1ccccc1)NC(=O)CN1CCOCC1)C(=O)N[C@@H](Cc1ccccc1)C(=O)N[C@@H](CC(C)C)C(=O)[C@@]1(C)CO1 | 84.6 | 86.5 | 100 | 8.14 | 7.13 | 7.08 | 6.63 | 5.14 | 4.16 | 1.67 | 1.47 | 97.5 | 102 | 65.7 | 8.2 | 7.68 | 6.95 | 7.46 | 4.9 | 2.81 | 1.52 | 1.37 | 72.1 | 81.7 | 80.6 | 8.46 | 7.46 | 7.29 | 6.73 | 4.71 | 3.02 | 1.73 | 1.54 |
| S=P(N1CC1)(N1CC1)N1CC1 | 102 | 106 | 110 | 96.7 | 104 | 107 | 103 | 98.5 | 85.1 | 93.3 | 39 |  |  |  |  |  |  |  |  |  |  |  | 99.6 | 108 | 106 | 105 | 105 | 107 | 93.6 | 90.4 | 95.1 | 78.5 | 41.5 |
| C[C@]1(c2nc3c(C(N)=O)cccc3[nH]2)CCCN1 | 63.8 | 74.1 | 75.9 | 89.1 | 78.3 | 81.3 | 74.5 | 90.6 | 87.2 | 80.3 | 63 | 81 | 62.7 | 68 | 88.8 | 83 | 87.4 | 89.7 | 85 | 98 | 98.1 | 59.8 | 68.5 | 63.7 | 64.9 | 87.2 | 71.9 | 79 | 84.5 | 75.6 | 76.7 | 76.7 | 51.5 |
| CN1CCCN=C1/C=C/c1cccs1.O=C(O)c1cc2ccccc2c(Cc2c(O)c(C(=O)O)cc3ccccc23)c1O | 113 | 126 | 114 | 128 | 120 | 135 | 118 | 119 | 113 | 115 | 91.9 | 113 | 118 | 128 | 119 | 105 | 128 | 129 | 105 | 105 | 92.9 | 15 |  |  |  |  |  |  |  |  |  |  |  |
| CCn1c(-c2nonc2N)nc2cnc(Oc3cccc(NC(=O)c4ccc(OCCN5CCOCC5)cc4)c3)cc21 | 93.1 | 106 | 102 | 98.7 | 111 | 114 | 113 | 111 | 102 | 82.2 | 70.3 | 102 | 102 | 108 | 119 | 122 | 100 | 102 | 111 | 93.4 | 71.9 | 54.5 | 124 | 111 | 105 | 113 | 108 | 102 | 92.2 | 116 | 106 | 86.6 | 59.7 |
| COc1cc2nccc(Oc3ccc(NC(=O)NC4CC4)c(Cl)c3)c2cc1C(N)=O | 116 | 117 | 126 | 118 | 108 | 108 | 88.7 | 79.2 | 69.1 | 56.2 | 51.4 | 93.5 | 117 | 105 | 98.4 | 97.1 | 98.8 | 72.2 | 80.4 | 63.2 | 44.2 | 32.1 | 119 | 110 | 122 | 114 | 104 | 90.8 | 81.4 | 75 | 59.3 | 53.7 | 47.9 |
| Cc1cn([C@@H]2O[C@H](CO)[C@@H](O)[C@@H]2F)c(=O)[nH]c1=O | 74.5 | 103 | 102 | 101 | 110 | 104 | 110 | 116 | 116 | 104 | 95 | 101 | 102 | 103 | 93.4 | 122 | 107 | 108 | 113 | 117 | 122 | 119 | 77 | 111 | 92.3 | 109 | 127 | 122 | 108 | 105 | 124 | 93.5 | 92.7 |
| C[S+](=O)([O-])N1CCc2c(-c3cnc(N)nc3)nc(N3CCOCC3)nc21 | 88.6 | 102 | 91.6 | 97.5 | 100 | 96.3 | 86 | 63.4 | 62.7 | 43.5 | 30.5 | 68.5 | 82.1 | 70.4 | 71.4 | 75.3 | 66.3 | 61 | 50.5 | 38.9 | 22.2 | 18.3 | 88.7 | 105 | 113 | 104 | 92.9 | 104 | 98 | 65.9 | 55.3 | 33.5 | 22.2 |
| C[S+]([O-])(=O)C1=CC=C(C=C1)C/2=C(/C(=O)OC2)C3=CC=CC=C3 | 96 | 102 | 105 | 107 | 103 | 115 | 104 | 115 | 115 | 79.7 | 94.1 | 100 | 107 | 104 | 119 | 114 | 122 | 104 | 95.1 | 102 | 66.9 | 11.4 | 89.4 | 105 | 115 | 111 | 112 | 120 | 119 | 117 | 124 | 75 | 71.6 |
| COC(=O)[C@@H]1[C@H]2C[C@H]3c4[nH]c5ccccc5c4CCN3C[C@@H]2CC[C@@H]1O | 86.1 | 90.4 | 102 | 110 | 104 | 110 | 120 | 115 | 116 | 120 | 116 | 94.7 | 112 | 122 | 104 | 110 | 110 | 135 | 119 | 120 | 128 | 125 | 98.6 | 109 | 108 | 120 | 125 | 124 | 119 | 133 | 130 | 133 | 118 |
| Cc1cc(C(C)(C)C)c(O)c(C)c1CC1=NCCN1 | 62.6 | 80.2 | 75.4 | 83 | 76.8 | 83.3 | 86.9 | 91.9 | 66.6 | 60.3 | 62.5 | 83.8 | 82.1 | 91.1 | 83.6 | 86.7 | 100 | 102 | 101 | 53.1 | 51.8 | 59.3 | 90.3 | 77.7 | 82.2 | 89.3 | 93.3 | 95.4 | 87.5 | 105 | 77.2 | 57.9 | 55.9 |
